Results reported in PubChem BioAssay (NCI).
Several values for one entry are separate records, joined by “and”; a condition that tells them apart may be missing. Identical values can stand only once.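 Assay format: 96-well plates, 48-hour exposure. GI50: concentration for 50% inhibition of growth. The concentration for full growth arrest is given as TGI.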

How the values were obtained:
Assay in all cases: DTP human tumour cell line panel, 48 h
[1] = system: 786-0 renal
[2] = system: A498 renal
[3] = system: A549 NSCLC
[4] = system: ACHN renal
[5] = system: BT-549 breast
[6] = system: CAKI-1 renal
[7] = system: CCRF-CEM leukemia
[8] = system: COLO 205 colon
[9] = system: DU-145 prostate
[10] = system: EKVX NSCLC
[11] = system: HCC-2998 colon
[12] = system: HCT-116 colon
[13] = system: HCT-15 colon
[14] = system: HL-60(TB) leukemia
[15] = system: HOP-62 NSCLC
[16] = system: HOP-92 NSCLC
[17] = system: HS 578T breast
[18] = system: HT29 colon
[19] = system: IGROV1 ovarian
[20] = system: K-562 leukemia
[21] = system: KM12 colon
[22] = system: LOX IMVI melanoma
[23] = system: M14 melanoma
[24] = system: MALME-3M melanoma
[25] = system: MCF7 breast
[26] = system: MDA-MB-231 breast
[27] = system: MDA-MB-435
[28] = system: MOLT-4 leukemia
[29] = system: NCI-H226 lung
[30] = system: NCI-H23 lung

CCOc1ccc(Nc2c3ccccc3nc3ccccc23)cc1
GI50 [1]: 0.666 µM and 0.34 µM | TGI [1]: 6.67 µM and 2.61 µM | GI50 [2]: 0.307 µM and 0.332 µM | TGI [2]: 6.81 µM and 3.02 µM | GI50 [3]: 0.734 µM and 0.887 µM | TGI [3]: 9.63 µM and 12.5 µM | GI50 [4]: 0.953 µM and 0.636 µM | TGI [4]: 3.83 µM and 2.15 µM | GI50 [5]: 0.478 µM and 0.556 µM | TGI [5]: 9.51 µM and 10.2 µM | GI50 [6]: 0.359 µM and 0.376 µM | TGI [6]: 3.32 µM and 1.75 µM | GI50 [7]: 0.585 µM and 0.739 µM | TGI [7]: > 31.7 µM and 3.26 µM | GI50 [8]: 0.313 µM and 0.307 µM | TGI [8]: 1.39 µM and 1.33 µM | GI50 [9]: 0.843 µM and 1.01 µM | TGI [9]: 9.34 µM and 6.59 µM | GI50 [10]: 0.863 µM and 0.613 µM | TGI [10]: 7.56 µM and 6.1 µM | GI50 [11]: 0.816 µM | TGI [11]: 2.78 µM and 0.65 µM | GI50 [12]: 0.335 µM and 0.318 µM | TGI [12]: 1.32 µM and 2.81 µM | GI50 [13]: 0.592 µM and 0.552 µM | TGI [13]: 3.18 µM | GI50 [14]: 1.58 µM and 0.545 µM | TGI [14]: 5.15 µM and 2.54 µM | GI50 [15]: 0.416 µM and 0.672 µM | TGI [15]: 5.25 µM and 13.1 µM | GI50 [16]: 0.299 µM and 1.06 µM | TGI [16]: 3.16 µM and 9.42 µM | GI50 [17]: 1.23 µM and 0.29 µM | GI50 [18]: 0.307 µM and 0.264 µM | TGI [18]: 1.26 µM and 1.08 µM | GI50 [19]: 0.758 µM and 0.32 µM | TGI [19]: 14.9 µM and 13.4 µM | GI50 [20]: 0.316 µM and 0.0616 µM | GI50 [21]: 0.581 µM and 0.487 µM | TGI [21]: 9.39 µM and 4.52 µM | GI50 [22]: 0.515 µM and 0.529 µM | TGI [22]: 2.98 µM | GI50 [23]: 0.359 µM and 0.312 µM | TGI [23]: 1.51 µM and 1.69 µM | GI50 [24]: 0.806 µM and 0.468 µM | TGI [24]: 4.1 µM and 3.45 µM | GI50 [25]: 0.318 µM and 0.297 µM | TGI [25]: 4.2 µM and 4.23 µM | GI50 [26]: 1.91 µM and 0.959 µM | TGI [26]: 9.67 µM and 14.5 µM | GI50 [27]: 0.0382 µM and 0.0574 µM | TGI [27]: 0.359 µM and 0.279 µM | GI50 [28]: 0.476 µM and 0.258 µM | TGI [28]: 5.59 µM and 1.27 µM | GI50 [29]: 1.33 µM and 1.29 µM | TGI [29]: 3.83 µM and 4.06 µM | GI50 [30]: 0.495 µM and 0.422 µM
